According to patent publication US9642869B2, “Boronic acid derivatives and therapeutic uses thereof” (Rempex Pharmaceuticals, Inc., priority 2013, dated 2017):

Key:
[1] = test system: SHV-5 ec308; assay type: cell-based; conditions: minimum BLI concentration inhibiting growth with tigemonam at 4 μg/mL
[2] = test system: TEM-10 ec302; assay type: cell-based
[3] = test system: TEM-10 ec302; assay: Aztreonam potentiation (MPC@4); assay type: cell-based; conditions: minimum BLI concentration inhibiting growth with 4 μg/mL aztreonam
[4] = test system: CTX-M-14 KP1005; assay: Aztreonam potentiation (MPC@4); assay type: cell-based; conditions: minimum BLI concentration inhibiting growth with 4 μg/mL aztreonam
[5] = test system: KPC-2 KP1004; assay: Aztreonam potentiation (MPC@4); assay type: cell-based; conditions: minimum BLI concentration inhibiting growth with 4 μg/mL aztreonam
[6] = test system: CMY-6 EC1010; assay: Aztreonam potentiation (MPC@4); assay type: cell-based; conditions: minimum BLI concentration inhibiting growth with 4 μg/mL aztreonam
[7] = test system: OXA-48 KP1086; assay: Biapenem potentiation (MPC@1); assay type: cell-based; conditions: minimum BLI concentration inhibiting growth with 1 μg/mL biapenem
Experimental: (§1) Biapenem was present in the test medium at 1 μg/mL. […] Table 3 summarizes the BLI potency of biapenem potentiation (MPC@1) for two strains overexpressing class A (KPC) and class D (OXA-48) carbapenemases. Biapenem MIC for each strain is also shown.

[8] = test system: KP1004 KPC-2; assay: Biapenem potentiation (MPC@1); assay type: cell-based; conditions: minimum BLI concentration inhibiting growth with 1 μg/mL biapenem
Experimental: as §1

[9] = test system: ECL1002; assay type: cell-based; conditions: minimum BLI concentration inhibiting growth with tigemonam at 4 μg/mL
[10] = test system: SHV-5 ec308; assay: Aztreonam potentiation (MPC@4); assay type: cell-based; conditions: minimum BLI concentration inhibiting growth with 4 μg/mL aztreonam
[11] = molecular target: SHV-12 (Klebsiella pneumoniae, UniProt P0AD64, E235K/G234S/L31Q); assay: Inhibition of nitrocefin cleavage by purified enzyme (Ki); assay type: biochemical
How it was run: (§2)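 Purified enzyme was preincubated with a range of inhibitor concentrations in reaction buffer for 10 min at room temperature. Nitrocefin was then added and its cleavage followed at 490 nm every 10 sec for 10 min.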

[12] = molecular target: CTX-M-14 (Escherichia coli, UniProt Q9L5C7); assay: as above; assay type: biochemical; conditions: nitrocefin reporter substrate, 10 min preincubation; read-out: Ki (CTX-M-14, NCF)
How it was run: as §2

[13] = molecular target: P99 (Enterobacter cloacae, UniProt P05364); assay: as above; assay type: biochemical; conditions: nitrocefin reporter substrate, 10 min preincubation; read-out: Ki (P99, NCF)
How it was run: as §2

[14] = molecular target: OXA-48 (Klebsiella pneumoniae, UniProt Q6XEC0); assay: as above; assay type: biochemical; conditions: nitrocefin reporter substrate, 10 min preincubation; read-out: Ki (OXA-48, NCF)
How it was run: as §2

[15] = molecular target: KPC-2 (Klebsiella pneumoniae, UniProt Q9F663); assay: as above; assay type: biochemical; conditions: nitrocefin reporter substrate, 10 min preincubation; read-out: Ki (KPC-2, NCF)
How it was run: as §2

[16] = test system: CTX-M-14 KP1005; assay type: cell-based
[17] = test system: CMY-6 EC1010; assay type: cell-based; conditions: minimum BLI concentration inhibiting growth with tigemonam at 4 μg/mL
[18] = test system: CTX-M-15 KP1009; assay type: cell-based
[19] = test system: ECL1002; assay: Aztreonam potentiation (MPC@4); assay type: cell-based; conditions: minimum BLI concentration inhibiting growth with 4 μg/mL aztreonam
[20] = test system: CTX-M-15 KP1009; assay: Aztreonam potentiation (MPC@4); assay type: cell-based; conditions: minimum BLI concentration inhibiting growth with 4 μg/mL aztreonam

Sequence of KPC-2 (Q9F663 25-293 limits assumed): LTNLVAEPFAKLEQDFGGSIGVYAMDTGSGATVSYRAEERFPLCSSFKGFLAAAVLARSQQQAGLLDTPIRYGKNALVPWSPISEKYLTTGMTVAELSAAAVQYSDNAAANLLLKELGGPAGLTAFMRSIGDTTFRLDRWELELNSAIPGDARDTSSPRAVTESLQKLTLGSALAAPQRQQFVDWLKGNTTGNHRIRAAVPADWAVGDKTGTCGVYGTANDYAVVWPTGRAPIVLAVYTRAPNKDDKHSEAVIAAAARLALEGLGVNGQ
Sequence of CTX-M-14 (Q9L5C7 entry or part of it): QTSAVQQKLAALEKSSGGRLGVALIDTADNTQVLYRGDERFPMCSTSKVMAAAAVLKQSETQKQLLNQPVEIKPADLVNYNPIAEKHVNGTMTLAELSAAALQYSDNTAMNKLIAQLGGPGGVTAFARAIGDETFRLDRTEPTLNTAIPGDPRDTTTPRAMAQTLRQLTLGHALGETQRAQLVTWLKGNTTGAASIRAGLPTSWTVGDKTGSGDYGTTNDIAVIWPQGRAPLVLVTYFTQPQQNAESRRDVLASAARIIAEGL
Sequence of SHV-12 (P0AD64 22-286 L31Q/G234S/E235K): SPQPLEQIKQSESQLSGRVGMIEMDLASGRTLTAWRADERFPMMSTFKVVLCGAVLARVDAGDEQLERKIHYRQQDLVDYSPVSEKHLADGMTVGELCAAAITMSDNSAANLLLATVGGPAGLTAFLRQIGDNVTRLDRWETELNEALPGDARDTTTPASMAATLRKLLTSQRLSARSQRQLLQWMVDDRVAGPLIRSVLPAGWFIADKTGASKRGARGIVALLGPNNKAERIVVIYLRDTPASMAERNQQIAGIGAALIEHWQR
Sequence of P99 (P05364 21-381): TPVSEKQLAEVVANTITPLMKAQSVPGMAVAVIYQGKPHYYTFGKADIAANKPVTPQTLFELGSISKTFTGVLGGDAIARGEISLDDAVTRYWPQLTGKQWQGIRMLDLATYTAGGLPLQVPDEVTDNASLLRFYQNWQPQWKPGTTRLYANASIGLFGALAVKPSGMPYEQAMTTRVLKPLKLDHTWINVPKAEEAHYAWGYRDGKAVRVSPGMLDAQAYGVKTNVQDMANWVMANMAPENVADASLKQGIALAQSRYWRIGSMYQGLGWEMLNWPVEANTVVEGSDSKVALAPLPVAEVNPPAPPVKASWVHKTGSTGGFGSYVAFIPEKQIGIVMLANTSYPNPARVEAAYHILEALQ
Sequence of OXA-48 (Q6XEC0 23-265 limits assumed): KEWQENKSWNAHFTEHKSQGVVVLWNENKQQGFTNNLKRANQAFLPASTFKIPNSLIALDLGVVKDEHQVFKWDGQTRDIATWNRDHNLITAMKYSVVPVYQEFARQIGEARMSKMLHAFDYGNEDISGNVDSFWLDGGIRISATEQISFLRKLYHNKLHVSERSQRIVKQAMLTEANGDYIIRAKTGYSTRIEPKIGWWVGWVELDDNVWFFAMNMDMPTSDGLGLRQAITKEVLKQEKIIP

Nc1nnc(C(=O)N[C@H]2Cc3cccc(C(=O)O)c3OB2O)o1 [Compound 20, (R)-3-(5-amino-1,3,4-oxadiazole-2-carboxamido)-2-hydroxy-3,4-dihydro-2H-benzo[e][1,2]oxaborinine-8-carboxylic acid]
TIG MPC4 SHV-5 ec308 [1]: X (MIC of less than 1 μg/mL) | TIG MPC4 TEM-10 ec302 [2]: Y (key: X: MIC of less than 1 μg/mL; Y: MIC of 1 μg/mL to 10 μg/mL; Z: MIC of greater than 10 μg/mL) | AZT MPC4 TEM-10 ec302 [3]: Y (MIC of 1 μg/mL to 10 μg/mL) | AZT MPC4 CTX-M-14 KP1005 [4]: Y (MIC of 1 μg/mL to 10 μg/mL) | AZT MPC4 KPC-2 KP1004 [5]: Y (MIC of 1 μg/mL to 10 μg/mL) | AZT MPC4 CMY-6 EC1010 [6]: X (MIC of less than 1 μg/mL) | BPM MPC1 OXA-48 KP1086 [7]: Y (MIC of 1 μg/mL to 10 μg/mL) | BPM MPC1 KP1004 KPC-2 [8]: X (MIC of less than 1 μg/mL) | TIG MPC4 ECL1002 [9]: X (MIC of less than 1 μg/mL) | AZT MPC4 SHV-5 ec308 [10]: X (MIC of less than 1 μg/mL) | Ki [11]: 1 to 10 nM | Ki [12]: 1 to 10 nM | Ki [13]: 1 to 10 nM | Ki [14]: 1 to 10 nM | Ki [15]: > 10 nM | TIG MPC4 CTX-M-14 KP1005 [16]: Y (key: X: MIC of less than 1 μg/mL; Y: MIC of 1 μg/mL to 10 μg/mL; Z: MIC of greater than 10 μg/mL) | TIG MPC4 CMY-6 EC1010 [17]: X (MIC of less than 1 μg/mL) | TIG MPC4 CTX-M-15 KP1009 [18]: X (key: X: MIC of less than 1 μg/mL; Y: MIC of 1 μg/mL to 10 μg/mL; Z: MIC of greater than 10 μg/mL) | AZT MPC4 ECL1002 [19]: X (MIC of less than 1 μg/mL) | AZT MPC4 CTX-M-15 KP1009 [20]: X (MIC of less than 1 μg/mL)
